Values quoted from earlier work as cited in patent US20160367500A1 (FERTILIFY INC., priority 2013, published 2016).
Read-outs that look alike come from different tables or passages of the source.

Assays:
[1] = fortification of food with folic acid
[2] = system: mouse hepatocyte mitochondria
[3] = system: methylglyoxal-treated oocytes
[4] = not given; remark: listed apart in the source
[5] = system: anti-Müllerian hormone (AMH); conditions: women with sufficient levels of vitamin D
[6] = system: ROS-mediated embryo-toxicity in cultures; conditions: vitamin C and vitamin E together, ex-vivo murine models
[7] = diet deficient in vitamin D versus vitamin D sufficient diet (Halloran 1980)

COC1=C(OC)C(=O)C(C/C=C(\C)CC/C=C(\C)CC/C=C(\C)CC/C=C(\C)CC/C=C(\C)CC/C=C(\C)CC/C=C(\C)CC/C=C(\C)CC/C=C(\C)CCC=C(C)C)=C(C)C1=O [Coenzyme Q10, coenzyme Q10]
litter size (aged female mice; 52-week-old mice, versus control groups without coenzyme Q10): significantly larger litter sizes | number of ovulated eggs after stimulation (aged female mice; aged female mice): significantly increases the number of ovulated eggs | safely tolerable dose (in vivo): up to 1200 mg per day

Nc1nc2ncc(CNc3ccc(C(=O)N[C@@H](CCC(=O)O)C(=O)O)cc3)nc2c(=O)[nH]1 [Folic Acid, folic acid]
rate of neural-tube defects [1]: significant reduction in the rate of neural-tube defects

O=C(O)c1cc(C(=O)O)c2c(n1)C(=O)C(=O)c1cc(C(=O)O)[nH]c1-2 [PQQ, pyrroloquinoline quinone]
mitochondrial biogenesis ([2]; aging cells): promotes the spontaneous generation of new mitochondria within aging cells | protection from oxidative stress ([2]; mouse hepatocyte mitochondria): protects mouse hepatocyte mitochondria from oxidative stress | upper limit (in words) (adults over the age of 18): (no known upper limit)

Oc1ccc(C=Cc2cc(O)cc(O)c2)cc1 [Resveratrol, resveratrol]
adverse effects caused by methylglyoxal (inhibition of oocyte maturation, disruption of spindle assembly) [3]: can alleviate the adverse effects caused by methylglyoxal | excessive ROS production, aberrant mitochondrial distribution, high level lipid peroxidation ([3]; methylglyoxal-induced cytotoxic changes): can block these cytotoxic changes | DNA double strands breaks ([3]; methylglyoxal-treated oocytes): decreased

vitamin D
reduction of fertility (female rats; [7]): 75% | reduction of litter size (female rats; [7]): 30% | litter size (female rats; diet lacking vitamin D before mating versus diet containing vitamin D (Hickie 1983)): significantly smaller litters | pregnancy rate per IVF cycle ([4]; women whose vitamin D levels were insufficient or deficient): 34.7% | pregnancy rate per IVF cycle ([4]; women with sufficient levels of vitamin D): 52.5% | AMH levels [5]: increased levels of anti-Müllerian hormone (AMH)

vitamin E
IVF [6]: improved IVF | rate of embryo development [6]: increased the rate of embryo development | tolerable upper limit of intake (Health Canada Nutrition Tables (2013)): 1000 mg per day
